Test results as given in patent publication US8101780B2, “Crystalline form of 3-(difluormethyl)-1-methyl-N-(3′,4′,5′-trifluor[1,1′-biphenyl]-2-yl)-1H-pyrazol-4-carboxamide” (BASF SE, priority 2007, dated 2012).

How the values were obtained:
Assay type in all cases: physicochemical
[1] = Slurry examples: forms suspended in water at 30° C., stirred, XRD analysis; conditions: magnetic stirrer
Experimental: Slurry Examples Proving the Stability of Form B:
The form in question or mixtures of different forms of 3-(difluoromethyl)-1-methyl-N-(3′,4′,5′-trifluoro[1,1′-biphenyl]-2-yl)-1H-pyrazole-4-carboxamide were suspended in water at 30° C.

[2] = Phase conversion of the amorphous form at room temperature
Text: The phase transformation can be seen for example in a DSC measurement or under a hot stage microscope.

[3] = Formulation stability upon storage at 40° C. for one week (sedimentation, particle size, crystalline modification by DSC and PXRD); conditions: SC formulation
Experimental: The stability of the crystalline forms was tested by formulating form A or form B according to examples 1 and 2 and analyzing the formulation stability in the form of sedimentation, particle size growth and change in crystalline modification.
The obtained formulations were assessed for their stability upon storage at 40° C. for one week. Microscopic pictures of the formulation were taken before and after storage at 40° C. to examplify the change in particle size. Dispersion stability was assessed using a 2% dilution of the formulation in water in a conical cylinder. The sedimentation volume is recorded after 2 hours of standing. The sediment was collected and analysed using DSC and powder diffraction diffractometry to characterized the solid sediment (giving thus evidence of the sediment amount and crystalline modification present in the sedimentation).
This would in practice be very unfavourable and cause blocking of nozzle during the application and inhomogeneous distribution of the active ingredient into the formulation.

Structure (SMILES)	Conversion of solid form in water suspension (XRD analysis) ([1]; after 1 day)	Conversion of solid form on standing [2]	Conversion of solid form in water suspension (XRD analysis) ([1]; after 2 days)	Phase transformation of the formulated active ingredient (DSC and PXRD) [3]
Cn1cc(C(=O)Nc2ccccc2-c2cc(F)c(F)c(F)c2)c(C(F)F)n1 [amorphous form, 3-(Difluormethyl)-1-methyl-N-(3′,4′,5′-trifluor[1,1′-biphenyl]-2-yl)-1H-pyrazol-4-carboxamide]	converted (based on XRD analysis) into form B	converts at room temperature slowly to crystalline form A or typically to mixtures of form A and form B	–	–
Cn1cc(C(=O)Nc2ccccc2-c2cc(F)c(F)c(F)c2)c(C(F)F)n1 [form A, 3-(Difluormethyl)-1-methyl-N-(3′,4′,5′-trifluor[1,1′-biphenyl]-2-yl)-1H-pyrazol-4-carboxamide]	–	–	converted (based on XRD analysis) into form B	converted fully into needle like crystals of form B
